# Laboratory results published in ChEMBL document CHEMBL1152525, “Synthesis and anti-HIV activity of novel 2',3'-dideoxy-3'-thiacytidine prodrugs” (Bioorg Med Chem, 2009).
# Tests used:
# physchem = conditions: octanol/water
# Description: Lipophilicity, log P of the compound
# in vitro = conditions: human, PBMC
# Description: Cytotoxicity against human PBMC after 7 days by sulforhodamine B assay
# [1] = tested on: Human immunodeficiency virus 1; test: microbe, parasite or virus in culture; conditions: Human immunodeficiency virus 1, 168 h
# Description: Antiviral activity against HIV1 infected in human PBMC assessed as inhibition of viral p24 antigen production after 7 days by ELISA
logP (physchem),IC50 [1] [µM],SMILES,CC50 at 168 h (in vitro) [µM]
-0.15,1.27,CC(C)CCOC(=O)OC[C@H]1O[C@@H](n2ccc(N)nc2=O)CS1,3330
0.2,0.3,CCCOC(=O)OC[C@H]1O[C@@H](n2ccc(N)nc2=O)CS1,3330
-0.31,0.2,CCOC(=O)OC[C@H]1O[C@@H](n2ccc(N)nc2=O)CS1,3000
0.86,0.2,CCCCOC(=O)OC[C@H]1O[C@@H](n2ccc(N)nc2=O)CS1,4500
1.57,0.25,CCCCCCOC(=O)OC[C@H]1O[C@@H](n2ccc(N)nc2=O)CS1,857
1.72,0.2,CCCCCCCCOC(=O)OC[C@H]1O[C@@H](n2ccc(N)nc2=O)CS1,450
1.23,0.065,CCCCCOC(=O)OC[C@H]1O[C@@H](n2ccc(N)nc2=O)CS1,1290
